Measurements taken from publication PMC6329299 (The pharmacogenomics journal, 2015).
Structures can show the parent of a compound that is named as a salt.

How the values were obtained:
[1] = Japanese cancer patients receiving irinotecan; ref [21]; cited from earlier work
[2] = after oseltamivir; ref [26]; cited from earlier work
[3] = Hydrolysis by human intestine s9 fractions; assay type: in vitro ADME; conditions: substrate 100 μM, 3 concentrations of HIS9
[4] = Hydrolysis by human kidney s9 fractions; assay type: in vitro ADME; conditions: substrate 100 μM, 3 concentrations of HKS9
Hydrolysis = conditions: for Vmax: HLS9, PBS pH 7.4, 37 °C, unit for ACEIs other than enalapril; for Km: human, pooled human liver s9 fractions (HLS9), pH 7.4; for Hydrolysis to active metabolite by human liver s9 fractions: prodrug 100 μM, 3 concentrations of HLS9
[5] = ref [20]; cited from earlier work
CES1 variant G143E [6] = biological target: T1, CES1 variant G143E (Homo sapiens, UniProt P23141, G142E); conditions: in vitro function study; ref [13], [15], [22], [23]; cited from earlier work
T1 sequence (P23141 18-568 isoform P23141-2 G143E limits assumed): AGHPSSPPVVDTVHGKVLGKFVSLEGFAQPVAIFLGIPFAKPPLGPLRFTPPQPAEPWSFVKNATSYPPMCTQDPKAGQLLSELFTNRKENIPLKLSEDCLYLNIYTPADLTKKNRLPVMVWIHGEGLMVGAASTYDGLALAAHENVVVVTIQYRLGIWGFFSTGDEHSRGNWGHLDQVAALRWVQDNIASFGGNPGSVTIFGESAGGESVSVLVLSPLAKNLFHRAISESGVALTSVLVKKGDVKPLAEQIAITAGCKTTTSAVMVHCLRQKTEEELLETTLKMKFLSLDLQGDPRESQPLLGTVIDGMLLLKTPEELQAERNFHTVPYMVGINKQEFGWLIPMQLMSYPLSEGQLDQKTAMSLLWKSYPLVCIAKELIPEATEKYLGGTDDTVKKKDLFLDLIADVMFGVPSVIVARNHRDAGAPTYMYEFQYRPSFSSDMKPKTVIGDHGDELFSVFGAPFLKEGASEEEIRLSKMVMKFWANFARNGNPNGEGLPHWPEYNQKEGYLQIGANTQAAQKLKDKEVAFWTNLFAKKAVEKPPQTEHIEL

[7] = tested on: CES1 in individual human liver s9 fractions; assay type: in vitro ADME; conditions: CES1 expression comparable to pooled HLS9
[8] = ref [24]; cited from earlier work
CES1 variant G143E [9] = biological target: T1, CES1 variant G143E; experiment: Hydrolysis by s9 fractions of cells stably expressing the CES1 variant G143E; conditions: prodrug 100 μM, 3 concentrations of cell s9
wild type (WT) CES1 = biological target: T2, wild type (WT) CES1 (Homo sapiens, UniProt P23141); conditions: prodrug 100 μM, 3 concentrations of cell s9
T2 sequence (P23141 18-568 isoform P23141-2 limits assumed): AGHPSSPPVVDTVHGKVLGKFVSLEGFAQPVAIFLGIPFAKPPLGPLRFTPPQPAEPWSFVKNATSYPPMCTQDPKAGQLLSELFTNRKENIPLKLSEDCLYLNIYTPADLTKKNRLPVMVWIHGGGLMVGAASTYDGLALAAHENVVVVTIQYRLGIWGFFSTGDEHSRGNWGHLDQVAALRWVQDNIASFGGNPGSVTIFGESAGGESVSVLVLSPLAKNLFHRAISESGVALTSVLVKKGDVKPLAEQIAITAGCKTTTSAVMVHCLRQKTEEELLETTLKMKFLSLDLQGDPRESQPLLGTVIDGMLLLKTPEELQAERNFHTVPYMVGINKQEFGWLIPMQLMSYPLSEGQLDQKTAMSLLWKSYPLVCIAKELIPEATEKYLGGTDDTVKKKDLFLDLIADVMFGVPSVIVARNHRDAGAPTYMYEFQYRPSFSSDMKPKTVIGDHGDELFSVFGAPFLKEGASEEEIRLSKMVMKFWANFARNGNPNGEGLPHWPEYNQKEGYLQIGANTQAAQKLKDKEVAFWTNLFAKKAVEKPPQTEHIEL

not read [10] = substrate: CCC(=O)O[C@@H](O[P@](=O)(CCCCc1ccccc1)CC(=O)N1C[C@H](C2CCCCC2)C[C@H]1C(=O)O)C(C)C; experiment: not read; conditions: other: WT CES1 cell s9; pH 7.4
not read [11] = substrate: CCC[C@H](N[C@@H](C)C(=O)N1[C@H](C(=O)O)C[C@@H]2CCCC[C@@H]21)C(=O)OCC; experiment: not read; conditions: other: WT CES1 cell s9; pH 7.4
not read [12] = substrate: CCOC(=O)[C@H](CCc1ccccc1)N[C@@H](C)C(=O)N1CCC[C@H]1C(=O)O; experiment: not read; conditions: other: WT CES1 cell s9; pH 7.4
not read [13] = substrate: CCOC(=O)[C@H](CCc1ccccc1)N[C@@H](C)C(=O)N1Cc2cc(OC)c(OC)cc2C[C@H]1C(=O)O; experiment: not read; conditions: other: WT CES1 cell s9; pH 7.4
not read [14] = substrate: CCOC(=O)[C@H](CCc1ccccc1)N[C@@H](C)C(=O)N1[C@H](C(=O)O)C[C@@H]2CCC[C@@H]21; experiment: not read; conditions: other: WT CES1 cell s9; pH 7.4

CCc1c2c(nc3ccc(OC(=O)N4CCC(N5CCCCC5)CC4)cc13)-c1cc3c(c(=O)n1C2)COC(=O)[C@]3(O)CC [irinotecan]
median AUC ratios of metabolites SN-38 and SN-38G to parent compound, higher in CES1P1VAR heterozygous and homozygous patients vs CES1P1/CES1P1 [1]: 24%

CCC(CC)O[C@@H]1C=C(C(=O)O)C[C@H](N)[C@H]1NC(C)=O [oseltamivir carboxylate]
mean Cmax lower in 143E heterozygotes than in non-carriers [2]: 17.5%

CCOC(=O)[C@H](CCc1ccccc1)N[C@@H](C)C(=O)N1Cc2cc(OC)c(OC)cc2C[C@H]1C(=O)O [Moexipril, moexipril hydrochloride]
Hydrolysis by human intestine s9 fractions [3]: No appreciable activation | Hydrolysis by human kidney s9 fractions [4]: No appreciable activation | Vmax (Hydrolysis): 4.4 ± 0.3 nmole/min/mg protein | Km (Hydrolysis): 1460 ± 266 µM | Hydrolysis to active metabolite by human liver s9 fractions (Hydrolysis): efficiently hydrolyzed

CCOC(=O)C1=C[C@@H](OC(CC)CC)[C@H](NC(C)=O)[C@@H](N)C1 [oseltamivir]
Metabolism in healthy subjects with different CES1/CES1VAR genotypes [5]: not significantly different

COC(=O)C(c1ccccc1)C1CCCCN1 (centres unmarked) [methylphenidate]
Function of the G143E variant for metabolism of the substrate (CES1 variant G143E [6]): loss-of-function

CCOC(=O)[C@H](CCc1ccccc1)N[C@@H](C)C(=O)N1[C@H](C(=O)O)C[C@H]2CCCC[C@@H]21 [trandolapril]
CES1 activity in the null-CES1 liver samples (some G143E non-carriers) [7]: inactive | Function of the G143E variant for metabolism of the substrate (CES1 variant G143E [6]): loss-of-function

COC(=O)[C@H](c1ccccc1Cl)N1CC[C@@H](S)/C(=C\C(=O)O)C1 [clopidogrel active metabolite]
concentrations higher in patients carrying heterozygous 143E relative to 143GG [8]: approximately 60%

CCOC(=O)[C@H](CCc1ccccc1)N[C@@H](C)C(=O)N1[C@H](C(=O)O)C[C@@H]2CCC[C@@H]21 [Ramipril, ramipril]
Hydrolysis by human intestine s9 fractions [3]: No appreciable activation | Hydrolysis by human kidney s9 fractions [4]: No appreciable activation | Vmax (Hydrolysis): 18.1 ± 0.7 nmole/min/mg protein | Km (Hydrolysis): 690 ± 61.8 µM | Hydrolysis to active metabolite by human liver s9 fractions (Hydrolysis): efficiently hydrolyzed | Active metabolite after incubation with CES1 variant G143E (CES1 variant G143E [9]): not detected | Hydrolysis to active metabolite by WT CES1 (wild type (WT) CES1): readily hydrolyzed

CCC(=O)O[C@@H](O[P@](=O)(CCCCc1ccccc1)CC(=O)N1C[C@H](C2CCCCC2)C[C@H]1C(=O)O)C(C)C [Fosinopril, Fosinopril sodium salt]
Hydrolysis by human intestine s9 fractions [3]: No appreciable activation | Hydrolysis by human kidney s9 fractions [4]: No appreciable activation | Vmax (Hydrolysis): 1.4 ± 0.2 nmole/min/mg protein | Km (Hydrolysis): 471 ± 212 µM | Hydrolysis to active metabolite by human liver s9 fractions (Hydrolysis): efficiently hydrolyzed

CC(=O)Oc1ccc([N+](=O)[O-])cc1 [PNPA, p-nitrophenyl acetate]
Hydrolysis by human intestine s9 fractions [3]: readily hydrolyzed | Hydrolysis by human kidney s9 fractions [4]: readily hydrolyzed

COC(=O)[C@H](c1ccccc1Cl)N1CCc2sccc2C1 [clopidogrel]
Function of the G143E variant for metabolism of the substrate (CES1 variant G143E [6]): loss-of-function

CCC[C@H](N[C@@H](C)C(=O)N1[C@H](C(=O)O)C[C@@H]2CCCC[C@@H]21)C(=O)OCC [Perindopril, perindopril erbumine]
Hydrolysis by human intestine s9 fractions [3]: No appreciable activation | Hydrolysis by human kidney s9 fractions [4]: No appreciable activation | Vmax (Hydrolysis): 18.1 ± 0.8 nmole/min/mg protein | Km (Hydrolysis): 1770 ± 165 µM | Hydrolysis to active metabolite by human liver s9 fractions (Hydrolysis): efficiently hydrolyzed

B1: wild type (WT) CES1 (Homo sapiens) (protein)
chain: AGHPSSPPVVDTVHGKVLGKFVSLEGFAQPVAIFLGIPFAKPPLGPLRFTPPQPAEPWSFVKNATSYPPMCTQDPKAGQLLSELFTNRKENIPLKLSEDCLYLNIYTPADLTKKNRLPVMVWIHGGGLMVGAASTYDGLALAAHENVVVVTIQYRLGIWGFFSTGDEHSRGNWGHLDQVAALRWVQDNIASFGGNPGSVTIFGESAGGESVSVLVLSPLAKNLFHRAISESGVALTSVLVKKGDVKPLAEQIAITAGCKTTTSAVMVHCLRQKTEEELLETTLKMKFLSLDLQGDPRESQPLLGTVIDGMLLLKTPEELQAERNFHTVPYMVGINKQEFGWLIPMQLMSYPLSEGQLDQKTAMSLLWKSYPLVCIAKELIPEATEKYLGGTDDTVKKKDLFLDLIADVMFGVPSVIVARNHRDAGAPTYMYEFQYRPSFSSDMKPKTVIGDHGDELFSVFGAPFLKEGASEEEIRLSKMVMKFWANFARNGNPNGEGLPHWPEYNQKEGYLQIGANTQAAQKLKDKEVAFWTNLFAKKAVEKPPQTEHIEL
Km (not read [10]): 276.1 ± 83.2 µM | Vmax (not read [10]): 1.6 ± 0.1 nmole/min/mg protein | Vmax/Km (not read [10]): 5.7 μl/min/mg protein | Km (not read [11]): 477.5 ± 60.9 µM | Vmax (not read [11]): 8.3 ± 0.4 nmole/min/mg protein | Vmax/Km (not read [11]): 17.4 μl/min/mg protein | Km (not read [12]): 36.6 ± 4.5 µM | Vmax (not read [12]): 389.0 ± 16.1 pmole/min/mg protein | Vmax/Km (not read [12]): 10.6 μl/min/mg protein | Km (not read [13]): 143.6 ± 24.5 µM | Vmax (not read [13]): 1.8 ± 0.1 nmole/min/mg protein | Vmax/Km (not read [13]): 12.4 μl/min/mg protein | Km (not read [14]): 245.6 ± 39.9 µM | Vmax (not read [14]): 11.6 ± 0.6 nmole/min/mg protein | Vmax/Km (not read [14]): 47.1 μl/min/mg protein
